This note sets out measurements from patent publication US20240059703A1 (AMGEN INC., priority 2021, published 2024).

For experiment [1], the system named is A549 (human lung carcinoma) cells. The experiment in a line: Cell Viability Assay (CellTiter-Glo), A549. It counts as cell-based. Particulars: Homo sapiens, A549, 72 h. The method, boiled down:
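MIA PaCa-2 or A549 cells in RPMI 1640 with 10% FBS were seeded at 1.67E+04 cells/mL and incubated overnight. Serially diluted compound was then added for 72 h at 37° C, 5% CO2. Viability read by CellTiter-Glo luminescence, normalized to DMSO, with IC50 from a 4-parameter logistic fit.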
On the technique in general: Cellular ATP, detected with luciferase, serves as a proxy for viable cell number.

The test system of experiment [2] is MIA PaCa-2 (human pancreatic carcinoma) cells. The experiment in a line: Cell Viability Assay (CellTiter-Glo), MIA PaCa-2. It is filed as cell-based. Particulars: Homo sapiens, MIA PaCa-2, 72 h. The protocol:
Serially-diluted compound or DMSO was added to the cells, and plates were incubated at 37° C., 5% CO2 for 72 h. Cell viability was measured using a CellTiter-Glo® Luminescent Cell Viability Assay kit (Promega) according to the manufacturer's protocol. The luminescence signal of treated samples was normalized to DMSO control, and data were analyzed using a 4-parameter logistic model to calculate IC50 values.

For experiment [3], the target named is KRAS G12C (Homo sapiens (Human), UniProt P01116, C118A/G12C). In words: 2 h coupled exchange assay. It is filed as biochemical. Particulars: Avg 2 h Coupled exchange IC50, 2 h compound pre-incubation. The method, then:
The term “2 h coupled exchange assay” or “20 h coupled exchange assay” as used herein refers to the assay described in the Section entitled “BIOLOGICAL EVALUATION.”

The mark [4] stands for this setting: SOS-mediated nucleotide exchange.

Sequence of KRAS G12C (P01116 other isoform, or with tags, fused parts or gaps G12C/C118A): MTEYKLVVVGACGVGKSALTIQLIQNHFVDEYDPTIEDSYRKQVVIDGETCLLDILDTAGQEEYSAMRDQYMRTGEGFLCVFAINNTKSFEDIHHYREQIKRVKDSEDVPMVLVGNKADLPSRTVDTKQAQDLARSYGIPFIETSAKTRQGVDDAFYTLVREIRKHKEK

Usually IC50 stands for the concentration that gives 50% inhibition. Consider `C=CC(=O)N1CC2(CCN(c3nc4c(c(-c5cc(O)cc6ccccc56)c3C#N)C[C@H]3C[C@@H]4C3(C)C)C2)C1` [Example 13-108, (1R,9R)-6-(3-hydroxy-1-naphthalenyl)-10,10-dimethyl-4-(2-(2-propenoyl)-2,6-diazaspiro[3.4]octan-6-yl)-3-azatricyclo[7.1.1.0^2,7]undeca-2,4,6-triene-5-carbonitrile], for which the IC50 in experiment [1] was 2910 nM; in experiment [2], 63 nM; in experiment [3] (setting [4]), 24 nM.
Regarding `C=CC(=O)N1CC2(CCN(c3nc4c(c(-c5c(C)ccc6cnn(C)c56)c3C#N)C[C@H]3C[C@@H]4C3)C2)C1` [Example 13-110, (1S,9S)-6-(1,6-dimethyl-1H-indazol-7-yl)-4-(2-(2-propenoyl)-2,6-diazaspiro[3.4]octan-6-yl)-3-azatricyclo[7.1.1.0^2,7]undeca-2,4,6-triene-5-carbonitrile], the IC50 is more than 5000 nM in experiment [1], 524 nM in experiment [2] and 73 nM in experiment [3] (setting [4]).
On the same counts, the results for `C=CC(=O)N1CC2(CCN(c3nc4c(c(-c5cc(O)ccc5C)c3C#N)COC(C)(C)C4)C2)C1` [Example 13-112, 4-(5-hydroxy-2-methylphenyl)-7,7-dimethyl-2-(2-(2-propenoyl)-2,6-diazaspiro[3.4]octan-6-yl)-7,8-dihydro-5H-pyrano[4,3-b]pyridine-3-carbonitrile] are more than 5000 nM, more than 5000 nM and 117 nM.
As for `C=CC(=O)N1CC2(CCN(c3nc4c(c(-c5cc(O)ccc5C)c3C#N)C[C@H]3C[C@@H]4C3)C2)C1` [Example 13-113, (1S,9S)-6-(5-hydroxy-2-methylphenyl)-4-(2-(2-propenoyl)-2,6-diazaspiro[3.4]octan-6-yl)-3-azatricyclo[7.1.1.0^2,7]undeca-2,4,6-triene-5-carbonitrile], the half-maximal inhibitory concentration (IC50) in experiment [1] was more than 5000 nM; in experiment [2] it was more than 5000 nM; in experiment [3] (setting [4]), 71 nM.
With `C=CC(=O)N1CC2(CCN(c3nc4c(c(-c5c(C)ccc6cnn(C)c56)c3C#N)CCC3CC43)C2)C1` [Example 13-116, (6aR,7aS)-4-(1,6-dimethyl-1H-indazol-7-yl)-2-(2-(2-propenoyl)-2,6-diazaspiro[3.4]octan-6-yl)-6,6a,7,7a-tetrahydro-5H-cyclopropa[h]quinoline-3-carbonitrile|(6aS,7aR)-4-(1,6-dimethyl-1H-indazol-7-yl)-2-(2-(2-propenoyl)-2,6-diazaspiro[3.4]octan-6-yl)-6,6a,7,7a-tetrahydro-5H-cyclopropa[h]quinoline-3-carbonitrile], the IC50 in experiment [1] is more than 5000 nM; in experiment [2] it was 775 nM; in experiment [3] (setting [4]), 30 nM.
Consider `C=CC(=O)N1CC2(CCN(c3nc4c(c(-c5c(C)ccc6cnn(C)c56)c3C#N)CCC(C)(C)C4)C2)C1` [Example 13-143, 4-(1,6-dimethyl-1H-indazol-7-yl)-7,7-dimethyl-2-(2-(2-propenoyl)-2,6-diazaspiro[3.4]octan-6-yl)-5,6,7,8-tetrahydro-3-quinolinecarbonitrile], for which the results for the half-maximal inhibitory concentration (IC50) in experiment [1], in experiment [2] and in experiment [3] (setting [4]) were more than 5000 nM, 602 nM and 33 nM, respectively.
With `C=CC(=O)N1CC2(CCN(c3nc4c(c(-c5c(Cl)ccc6[nH]ncc56)c3C#N)CCC(C)(C)C4)C2)C1` [Example 13-144, 4-(5-chloro-1H-indazol-4-yl)-7,7-dimethyl-2-(2-(2-propenoyl)-2,6-diazaspiro[3.4]octan-6-yl)-5,6,7,8-tetrahydro-3-quinolinecarbonitrile], the concentration for half-maximal inhibition (IC50) in experiment [1] was determined as 3800 nM; in experiment [2], 172 nM; in experiment [3] (setting [4]), 41 nM.
Consider `C=CC(=O)N1CC2(CCN(c3nc4c(c(-c5c(C)cc(F)c6[nH]ncc56)c3C#N)CCC(C)(C)C4)C2)C1` [Example 13-146, 4-(7-fluoro-5-methyl-1H-indazol-4-yl)-7,7-dimethyl-2-(2-(2-propenoyl)-2,6-diazaspiro[3.4]octan-6-yl)-5,6,7,8-tetrahydro-3-quinolinecarbonitrile], for which the 50% inhibitory concentration (IC50) is more than 5000 nM in experiment [1], 71 nM in experiment [2] and 29 nM in experiment [3] (setting [4]).
Consider `C=CC(=O)N1CC2(CCN(c3nc4c(c(-c5c(C)cc(F)c6[nH]ncc56)c3C#N)COC(C)(C)C4)C2)C1` [Example 13-147, 4-(7-fluoro-5-methyl-1H-indazol-4-yl)-7,7-dimethyl-2-(2-(2-propenoyl)-2,6-diazaspiro[3.4]octan-6-yl)-7,8-dihydro-5H-pyrano[4,3-b]pyridine-3-carbonitrile], for which the half-inhibitory concentration (IC50) in experiment [1] is more than 5000 nM; in experiment [2] it was 176 nM; in experiment [3] (setting [4]) it was 98 nM.
In the case of `C=CC(=O)N1CC2(CCN(c3nc4c(c(-c5c(Cl)ccc6[nH]ncc56)c3C#N)COC(C)(C)C4)C2)C1` [Example 13-148, 4-(5-chloro-1H-indazol-4-yl)-7,7-dimethyl-2-(2-(2-propenoyl)-2,6-diazaspiro[3.4]octan-6-yl)-7,8-dihydro-5H-pyrano[4,3-b]pyridine-3-carbonitrile], the IC50 in experiment [1] is more than 5000 nM; in experiment [2], 103 nM; in experiment [3] (setting [4]), 26 nM.
With `C=CC(=O)N1CC2(CCN(c3nc4c(c(-c5c(F)ccc6[nH]ncc56)c3C#N)COC(C)(C)C4)C2)C1` [Example 13-149, 4-(5-fluoro-1H-indazol-4-yl)-7,7-dimethyl-2-(2-(2-propenoyl)-2,6-diazaspiro[3.4]octan-6-yl)-7,8-dihydro-5H-pyrano[4,3-b]pyridine-3-carbonitrile], the IC50 stood at 11200 nM in experiment [1], 616 nM in experiment [2] and 276 nM in experiment [3] (setting [4]).
Consider `C=CC(=O)N1CC2(CCN(c3nc4c(c(-c5c(C)cnc6[nH]ncc56)c3C#N)CCC(C)(C)C4)C2)C1` [Example 13-151, 7,7-dimethyl-4-(5-methyl-1H-pyrazolo[3,4-b]pyridin-4-yl)-2-(2-(2-propenoyl)-2,6-diazaspiro[3.4]octan-6-yl)-5,6,7,8-tetrahydro-3-quinolinecarbonitrile], for which the figures for the IC50 in experiment [1], in experiment [2] and in experiment [3] (setting [4]) were 9340 nM, 1190 nM and 149 nM, respectively.
Regarding `C=CC(=O)N1CC2(CCN(c3nc4c(c(-c5cccc(C)c5Cl)c3C#N)COC(C)(C)C4)C2)C1` [Example 13-152, 4-(2-chloro-3-methylphenyl)-7,7-dimethyl-2-(2-(2-propenoyl)-2,6-diazaspiro[3.4]octan-6-yl)-7,8-dihydro-5H-pyrano[4,3-b]pyridine-3-carbonitrile], the IC50 in experiment [1] worked out at 9050 nM; in experiment [2], 1930 nM; in experiment [3] (setting [4]) it was 787 nM.
On the same counts, the results for `C=CC(=O)N1CC2(CCN(c3nc4c(c(-c5cc(O)cc(C)c5Cl)c3C#N)COC(C)(C)C4)C2)C1` [Example 13-153, 4-(2-chloro-5-hydroxy-3-methylphenyl)-7,7-dimethyl-2-(2-(2-propenoyl)-2,6-diazaspiro[3.4]octan-6-yl)-7,8-dihydro-5H-pyrano[4,3-b]pyridine-3-carbonitrile] are more than 5000 nM, 58 nM and 64 nM.
Take `C=CC(=O)N1CC2(CCN(c3nc4c(c(-c5c(N)c(Cl)cc(Cl)c5F)c3C#N)COC(C)(C)C4)C2)C1` [Example 13-154, 4-(2-amino-3,5-dichloro-6-fluorophenyl)-7,7-dimethyl-2-(2-(2-propenoyl)-2,6-diazaspiro[3.4]octan-6-yl)-7,8-dihydro-5H-pyrano[4,3-b]pyridine-3-carbonitrile]: the IC50 is more than 5000 nM in experiment [1], 776 nM in experiment [2] and 81 nM in experiment [3] (setting [4]).
On the same counts, the results for `C=CC(=O)N1CC2(CCN(c3nc4c(c(-c5c(N)cccc5F)c3C#N)COC(C)(C)C4)C2)C1` [Example 13-157, 4-(2-amino-6-fluorophenyl)-7,7-dimethyl-2-(2-(2-propenoyl)-2,6-diazaspiro[3.4]octan-6-yl)-7,8-dihydro-5H-pyrano[4,3-b]pyridine-3-carbonitrile] are 16200 nM, 357 nM and 555 nM.
With `C=CC(=O)N1CC2(CCN(c3nc4ccccc4c(-c4c(C)c(F)cc5[nH]ncc45)c3C#N)C2)C1` [Example 14-2, 4-(6-fluoro-5-methyl-1H-indazol-4-yl)-2-(2-(2-propenoyl)-2,6-diazaspiro[3.4]octan-6-yl)-3-quinolinecarbonitrile], the IC50 was more than 5000 nM in experiment [1], 458 nM in experiment [2] and 87 nM in experiment [3] (setting [4]).
Consider `C=CC(=O)N1CC2(CCN(c3nc4ccccc4c(-c4c(C)c(Cl)cc5[nH]ncc45)c3C#N)C2)C1` [Example 14-18, 4-(6-chloro-5-methyl-1H-indazol-4-yl)-2-(2-(2-propenoyl)-2,6-diazaspiro[3.4]octan-6-yl)-3-quinolinecarbonitrile], for which the values for the half-maximal inhibitory concentration (IC50) in experiment [1], in experiment [2] and in experiment [3] were more than 5000 nM, 324 nM and 43 nM, respectively.
For the compound `C=CC(=O)N1CC2(CCN(c3nc4cc(C5CC5)ccc4c(-c4c(C)ccc5[nH]ncc45)c3C#N)C2)C1` [Example 14-19, 7-cyclopropyl-4-(5-methyl-1H-indazol-4-yl)-2-(2-(2-propenoyl)-2,6-diazaspiro[3.4]octan-6-yl)-3-quinolinecarbonitrile], the IC50 in experiment [1] was more than 5000 nM; in experiment [2], 1690 nM; in experiment [3] it was 130 nM.
